Where no end group is shown, it is not given here.
System: HeLa-654 cells
Test: HeLa-654 eGFP assay (flow cytometry: mean fluorescence, gated cell count, F×C)
Format: cell-based, human
Method: With the 36 constructs synthesized, the ability to modulate PMO activity using the modified HeLa cell assay was tested. The HeLa-654 cells were stably transfected to express a nonfluorescent eGFP protein. The eGFP gene is interrupted by a mutant intron from the human β-globin gene (IVS2-654). The insertion alters pre-mRNA splicing to cause retention of a fragment in the mature mRNA that results in a nonfluorescent protein. PMO IVS2-654 base-pairs with the β-globin insertion, modifies mRNA splicing, and thereby leads to expression of fluorescent eGFP.
For treatment, the crude reaction mixture was diluted to 5 μM in media. The concentration of the modular construct was calculated based on the original concentration of the module 1-2 conjugate mixed in the reaction. Using media containing 10% fetal bovine serum (FBS), the cells were treated with each construct for 22 hours, after which the cellular fluorescence was measured by flow cytometry.
The different modules led to several noticeable trends in the level of cellular fluorescence (FIG. 4). When module 2 was DPV6, the overall construct consistently led to high fluorescence, regardless of which peptides were placed in module 3 and 4. However, when either pVEC or TP10 was placed in module 2, minor cellular fluorescence was observed. […]

Substance | cell viability, in words (low micromolar concentrations of copper in cell culture) | activity relative to PMO by itself (single peptide conjugated to PMO on its own)
copper | did not affect cell viability | –
W/R: W/R peptide (RRWWRRWRR) conjugated to PMO on its own (also: conjugated to PMO (position not given here)) | – | around 3 ×

— patent publication US12168059B2, “Trimeric peptides for antisense delivery” (Sarepta Therapeutics, Inc., priority 2018, dated 2024)
